The source of these data is US20230097157A1, “Bicyclic Pyridin-2-one and pyrimidin-4-one Derivatives Useful As a Factor XIa Inhibitors” (Janssen Pharmaceutica NV, priority 2021, published 2023).

Where two headings read alike, the source gives them in different places.

One assay addresses Factor XIa (Homo sapiens, UniProt P03951). Briefly: Factor XIa inhibition assay (FLINT) utilizing a fluorophore-quencher pair peptide substrate 5Fam-[…]-K5Tamra. The class given is biochemical. The conditions noted are these: kinetic (KIN) reads, read-out: FXIa KIN Inh IC50. The source says: Biological Example 1: Factor XIa Inhibition Assay Utilizing a Fluorophore-Quencher Pair Peptide Substrate A fluorescence intensity (FLINT) based assay was used to monitor inhibition of Factor XIa. The peptide substrate, 5Fam-[…]-K5Tamra (purchased from New England Peptide) was chosen based on the FXI sequence. Conversion of zymogen FXI to its activated form, FXIa, occurs by proteolytic cleavage by […] at two sites, Arg146 and Arg180. The custom peptide used in this assay was based on the Arg146 cleavage site of FXI. The peptide substrate was designed with a fluorophore-quencher pair, where the fluorescence is quenched until FXIa cleaves the 8-mer peptide after the Arg residue.
The Factor XIa FLINT assay was used with the following 5Fam-[…]-K5Tamra assay buffer: 50 mM Tris, pH 7.5, 100 mM NaCl, 5 mM CaCl2, 0.1 mg/mL BSA, 0.03% CHAPS. Assay buffer was prepared by mixing all ingredients fresh. 5Fam-[…]-K5Tamra peptide substrate was first prepared at 10 mM in 100% DMSO, then diluted to 3 mM in 100% DMSO. Assay buffer was then added directly to the 3 mM stock of substrate to prepare the 30 μM 2× working concentration (15 μM final concentration). The 2× Factor XIa stock solution was prepared by diluting 6.562 μM stock in 1× assay buffer for a […].
Test compound(s) were run in an 11-point, 3-fold serial dilution with a final top compound concentration of 100 nM. Final DMSO in assay was 2%. FXIa was preincubated with compound for 30-minutes and then substrate was added to initiate the reaction. The assay was run with kinetic (KIN) reads at 5 min intervals over 30 minutes. […] More specifically, the assay was run as follows: • 100 nL of 0.01 mM test compound was dispensed into black 384-well non-binding Greiner BioOne 784900 plate for 0.1 μM final concentration; • 5 μL of 1× assay buffer was dispensed to column 24 (low control) and 5 μL 2× Factor XIa solution was dispensed to columns 1-23 (column 23 high control); • the plate was centrifuged with a “cover” plate at 500 rpm for 1 min • the plate was pre-incubated for 30 minutes at room temperature with plate covered; • 5 μL of 2×5Fam-[…]-K5Tamra peptide substrate was dispensed into the entire plate, columns 1-24; • the plate was centrifuged with a “cover” plate at 500 rpm for 1 min; • the plate was read monitoring fluorescence intensity on the BMG PHERAStar at room temperature, using fluorescence module 485 nm/520 nm.
(§1) Percent inhibition (IC50) curves were generated per compound tested, and data was analyzed using a 4-parameter logistic fit using GeneData Screener. The relative fluorescence unit (RFU) values were normalized to percent inhibition using the following equation:
% inhibition=((HC−LC)−(compound−LC)/(HC−LC))*100 where LC−low control=mean signal of no Factor XIa or 100% inhibition of Factor XIa; HC−high control=mean signal of Factor XIa+5Fam-[…]-K5Tamra peptide substrate with DMSO only.
(§2) An 11-point dose response curve for the test compound(s) was generated using GENDATA to determine IC50 value based on the following equation:
Y=Bottom+(Top−Bottom)/(1+10^((log IC50−X)*HillSlope)) where Y is the % inhibition in the presence of X inhibitor concentration, Top=high control=mean signal of Factor XIa+5Fam-[…]-K5Tamra peptide substrate with DMSO only; Bottom=low control−mean signal of no Factor XIa or 100% inhibition of Factor XIa; HillSlope−Hill coefficient; and IC50=concentration of compound with 50% inhibition in relation to top/high control.

For another assay, the target named is human plasma kallikrein (Homo sapiens, UniProt P03952). Description: Kallikrein inhibition assay (FLINT) utilizing a quenched AMC peptide substrate Z-Gly-Pro-Arg-AMC. The conditions noted are these: kinetic (KIN) reads, read-out: Kallikrein KIN Inh IC50. The assay is classed as biochemical.
Chain of human plasma kallikrein (P03952 391-638 limits assumed): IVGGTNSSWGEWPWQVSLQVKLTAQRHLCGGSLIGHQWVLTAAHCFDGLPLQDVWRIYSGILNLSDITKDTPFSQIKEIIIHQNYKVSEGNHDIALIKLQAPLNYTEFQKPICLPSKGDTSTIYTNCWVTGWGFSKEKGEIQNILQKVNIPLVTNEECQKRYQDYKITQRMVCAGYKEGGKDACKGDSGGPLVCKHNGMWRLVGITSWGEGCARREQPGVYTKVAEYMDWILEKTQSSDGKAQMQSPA
Chain of human plasma kallikrein (P03952 20-390 partner limits assumed): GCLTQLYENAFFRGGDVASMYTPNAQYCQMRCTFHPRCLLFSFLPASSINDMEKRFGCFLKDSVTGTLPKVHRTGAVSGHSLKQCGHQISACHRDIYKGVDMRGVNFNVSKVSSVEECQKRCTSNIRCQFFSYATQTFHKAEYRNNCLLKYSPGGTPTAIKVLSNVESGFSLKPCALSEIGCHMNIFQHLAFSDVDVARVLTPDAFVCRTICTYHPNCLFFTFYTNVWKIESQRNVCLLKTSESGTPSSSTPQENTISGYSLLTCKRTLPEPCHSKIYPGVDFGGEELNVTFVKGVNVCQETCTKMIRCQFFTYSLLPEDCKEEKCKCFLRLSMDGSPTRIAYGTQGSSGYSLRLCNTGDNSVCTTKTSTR
From the text: Biological Example 2: Kallikrein Inhibition Assay Utilizing a Quenched AMC Peptide Substrate A fluorescence intensity (FLINT) based assay was used to monitor inhibition of human plasma kallikrein. The peptide substrate, Z-Gly-Pro-Arg-AMC (Purchased from Bachem; Catalog #I-1150) was chosen based on its relatively low KM for kallikrein which enables running the assay at lower substrate concentrations to control background fluorescence.
The Kallikrein FLINT assay was used with the following Z-Gly-Pro-Arg-AMC assay buffer: 50 mM Tris, pH 7.5, 100 mM NaCl, 5 mM CaCl2, 0.1 mg/mL BSA, 0.03% CHAPS. Assay buffer was prepared by mixing all ingredients fresh. 2× Z-Gly-Pro-Arg-AMC peptide substrate was prepared by diluting 10 mM stock into 1× assay buffer for a 100 μM working concentration (50 μM final concentration). The 2× kallikrein stock solution was prepared by diluting 14.76 μM stock in 1× assay buffer for a 4 nM working stock solution (2 nM final concentration).
Test compound(s) were run in an 11-point, 3-fold serial dilution with a final top compound concentration of 1 μM. Final DMSO in assay was 2%. Plasma kallikrein was pre-incubated for 30-minute with compound and then 50 μM substrate was added to initiate the reaction. The assay was run with kinetic (KIN) reads at 5 min intervals over 30 minutes. The time course was linear using 2 nM kallikrein greater than 30 minutes. More specifically, the assay was run as follows: • 100 nL of 0.1 mM test compound was dispensed into black 384-well non-binding Greiner BioOne 784900 plate for 1 μM final concentration; • 5 μL of 1× assay buffer was dispensed to columns 24 (low control) and 5 μL 2× human kallikrein enzyme solution was dispensed to columns 1-23 (column 23 high control); • the plate was centrifuged with a “cover” plate at 500 rpm for 1 min • the plate was pre-incubated for 30 minutes at room temperature with plate covered; • 5 μL of 2× Z-Gly-Pro-Arg-AMC peptide substrate was dispensed into the entire plate, columns 1-24; • the plate was centrifuged with a “cover” plate at 500 rpm for 1 min; • the plate was read monitoring fluorescence intensity on the BMG PHERAStar at room temperature, using fluorescence module 340 nm/440 nm.
as §1
% inhibition=((HC−LC)−(compound−LC)/(HC−LC))*100 where LC—low control=mean signal of […] or 100% inhibition of human kallikrein enzyme; HC—high control=mean signal of […]+Z-Gly-Pro-Arg-AMC peptide substrate with DMSO only.
as §2
Y=Bottom+(Top−Bottom)/(1+10^((log IC50−X)*HillSlope)) where Y is the % inhibition in the presence of X inhibitor concentration, Top=high control=mean signal of human kallikrein enzyme+Z-Gly-Pro-Arg-AMC peptide substrate with DMSO only; Bottom=low control−mean signal of no human kallikrein enzyme or 100% inhibition of human kallikrein enzyme; HillSlope−Hill coefficient; and IC50=concentration of compound with 50% inhibition in relation to top/high control.

Chain of Factor XIa (P03951 388-625 limits assumed): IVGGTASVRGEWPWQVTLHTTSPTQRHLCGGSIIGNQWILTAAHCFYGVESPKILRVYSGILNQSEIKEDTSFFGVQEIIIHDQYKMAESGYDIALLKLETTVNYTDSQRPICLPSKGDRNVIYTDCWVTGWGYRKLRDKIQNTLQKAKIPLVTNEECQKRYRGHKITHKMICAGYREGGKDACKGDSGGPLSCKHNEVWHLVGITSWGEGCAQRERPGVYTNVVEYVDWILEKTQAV
Chain of Factor XIa (P03951 19-387 partner limits assumed): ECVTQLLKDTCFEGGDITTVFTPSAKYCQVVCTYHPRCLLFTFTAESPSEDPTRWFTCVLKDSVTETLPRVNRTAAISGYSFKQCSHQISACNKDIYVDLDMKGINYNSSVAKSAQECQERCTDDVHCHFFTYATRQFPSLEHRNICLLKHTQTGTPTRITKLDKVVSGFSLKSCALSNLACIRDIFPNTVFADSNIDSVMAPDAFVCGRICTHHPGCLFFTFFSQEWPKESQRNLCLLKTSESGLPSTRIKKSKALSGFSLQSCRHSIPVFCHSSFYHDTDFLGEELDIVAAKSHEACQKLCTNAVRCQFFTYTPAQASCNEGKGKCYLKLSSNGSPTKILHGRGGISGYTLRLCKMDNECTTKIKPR

As for `C[C@H]1C[C@H](c2ncc(-c3ccc(N)nc3Cl)[nH]2)n2c1cc(-c1c(-n3cnnn3)ccc(Cl)c1F)cc2=O` (relative stereo) [Example 37, (1*S,3*R)-3-(5-(6-Amino-2-chloropyridin-3-yl)-1H-imidazol-2-yl)-7-(3-chloro-2-fluoro-6-(1H-tetrazol-1-yl)phenyl)-1-methyl-2,3-dihydroindolizin-5(1H)-one], the IC50 on Factor XIa (values in nM) was 283 nM; on human plasma kallikrein (unit μM) it was 7.8 µM.
Regarding `C[C@@H]1C[C@H](c2ncc(-c3ccnc(CN)c3)[nH]2)n2c1cc(-c1c(-n3cnnn3)ccc(Cl)c1F)cc2=O` (relative stereo) [Example 38, (1*R,3*R)-3-(5-(2-(Aminomethyl)pyridin-4-yl)-1H-imidazol-2-yl)-7-(3-chloro-2-fluoro-6-(1H-tetrazol-1-yl)phenyl)-1-methyl-2,3-dihydroindolizin-5(1H)-one], the figures for the IC50 at Factor XIa (values in nM) and on human plasma kallikrein (values in nM) were 42.9 nM and 0.539 µM, respectively.
As to `C[C@@H]1C[C@@H](c2ncc(-c3ccnc(F)c3)[nH]2)n2c1cc(-c1c(-n3cnnn3)ccc(Cl)c1F)cc2=O` (relative stereo) [Example 45, (1*R,3*S)-7-(3-Chloro-2-fluoro-6-(1H-tetrazol-1-yl)phenyl)-3-(5-(2-fluoropyridin-4-yl)-1H-imidazol-2-yl)-1-methyl-2,3-dihydroindolizin-5(1H)-one], the IC50 on Factor XIa (unit μM) was more than 10000 nM; at human plasma kallikrein (unit μM) it was more than 10 µM.
With `Cc1nc(N)ccc1-c1cnc([C@@H]2C[C@H](C)c3cc(-c4c(-n5cnnn5)ccc(Cl)c4F)cc(=O)n32)[nH]1` (relative stereo) [Example 51, (1*S,3*S)-3-(5-(6-Amino-2-methylpyridin-3-yl)-1H-imidazol-2-yl)-7-(3-chloro-2-fluoro-6-(1H-tetrazol-1-yl)phenyl)-1-methyl-2,3-dihydroindolizin-5(1H)-one], the IC50 on Factor XIa (values in nM) is 0.8 nM; on human plasma kallikrein (values in nM), 0.0492 µM.
With `C[C@H]1C[C@@H](c2ncc(-c3cnc(N)c(F)c3)[nH]2)n2c1cc(-c1c(-n3cnnn3)ccc(Cl)c1F)cc2=O` (relative stereo) [Example 61, (1*S,3*S)-3-(5-(6-Amino-5-fluoropyridin-3-yl)-1H-imidazol-2-yl)-7-(3-chloro-2-fluoro-6-(1H-tetrazol-1-yl)phenyl)-1-methyl-2,3-dihydroindolizin-5(1H)-one], the IC50 was more than 10000 nM on Factor XIa (unit μM) and more than 10 µM on human plasma kallikrein (unit μM).
Consider `C[C@@H]1C[C@@H](c2ncc(-c3cnc(N)c(F)c3)[nH]2)n2c1cc(-c1c(-n3cnnn3)ccc(Cl)c1F)cc2=O` (relative stereo) [Example 62, (1*R,3*S)-3-(5-(6-amino-5-fluoropyridin-3-yl)-1H-imidazol-2-yl)-7-(3-chloro-2-fluoro-6-(1H-tetrazol-1-yl)phenyl)-1-methyl-2,3-dihydroindolizin-5(1H)-one], for which the figures for the IC50 on Factor XIa (values in nM) and at human plasma kallikrein (values in nM) were 19.6 nM and 0.0181 µM, respectively.
As for `COC(=O)Nc1ccc(-c2cnc([C@@H]3C[C@H](C)c4cc(-c5c(-n6cnnn6)ccc(Cl)c5F)cc(=O)n43)[nH]2)cc1` (relative stereo) [Example 64, Methyl(4-(2-((1*S,3*S)-7-(3-chloro-2-fluoro-6-(1H-tetrazol-1-yl)phenyl)-1-methyl-5-oxo-1,2,3,5-tetrahydroindolizin-3-yl)-1H-imidazol-5-yl)phenyl)carbamate], the IC50 at Factor XIa (unit μM) is 1700 nM; on human plasma kallikrein (unit μM) it was 5.4 µM.
As to `C[C@H]1C[C@@H](c2ncc(-c3ncc(N)nc3C(F)(F)F)[nH]2)n2c1nc(-c1c(-n3cnnn3)ccc(Cl)c1F)cc2=O` (relative stereo) [Example 83, (6*S,8*S)-6-(5-(5-Amino-3-(trifluoromethyl)pyrazin-2-yl)-1H-imidazol-2-yl)-2-(3-chloro-2-fluoro-6-(1H-tetrazol-1-yl)phenyl)-8-methyl-7,8-dihydropyrrolo[1,2-a]pyrimidin-4(6H)-one], the results for the IC50 at Factor XIa (values in nM) and at human plasma kallikrein (values in nM) were 56.2 nM and 0.377 µM, respectively.
Regarding `COc1nc(N)cnc1-c1cnc([C@@H]2C[C@H](C)c3nc(-c4c(-n5cnnn5)ccc(Cl)c4F)cc(=O)n32)[nH]1` (relative stereo) [Example 84, (6*S,8*S)-6-(5-(5-Amino-3-methoxypyrazin-2-yl)-1H-imidazol-2-yl)-2-(3-chloro-2-fluoro-6-(1H-tetrazol-1-yl)phenyl)-8-methyl-7,8-dihydropyrrolo[1,2-a]pyrimidin-4(6H)-one], the IC50 came out at 5.7 nM at Factor XIa (values in nM) and 0.0319 µM on human plasma kallikrein (values in nM).
As to `C[C@H]1C[C@H](c2ncc(-c3ncc(N)nc3C(F)F)[nH]2)n2c1nc(-c1c(-n3cnnn3)ccc(Cl)c1F)cc2=O` (relative stereo) [Example 85, (6*R,8*S)-6-(5-(5-Amino-3-(difluoromethyl)pyrazin-2-yl)-1H-imidazol-2-yl)-2-(3-chloro-2-fluoro-6-(1H-tetrazol-1-yl)phenyl)-8-methyl-7,8-dihydropyrrolo[1,2-a]pyrimidin-4(6H)-one], the IC50 at Factor XIa (values in nM) is 52 nM; at human plasma kallikrein (unit μM) it was more than 1 µM.
Regarding `C[C@H]1C[C@@H](c2ncc(-c3ncc(N)nc3C(F)F)[nH]2)n2c1nc(-c1c(-n3cnnn3)ccc(Cl)c1F)cc2=O` (relative stereo) [Example 86, (6*S,8*S)-6-(5-(5-Amino-3-(difluoromethyl)pyrazin-2-yl)-1H-imidazol-2-yl)-2-(3-chloro-2-fluoro-6-(1H-tetrazol-1-yl)phenyl)-8-methyl-7,8-dihydropyrrolo[1,2-a]pyrimidin-4(6H)-one], the IC50 is more than 100 nM on Factor XIa (values in nM) and 0.819 µM on human plasma kallikrein (values in nM).

By IC50 is commonly meant the concentration that gives 50% inhibition.
